According to patent publication US5145783A, “Glyphosate-tolerant 5-endolpyruvyl-3-phosphoshikimate synthase” (Monsanto Company, priority 1990, dated 1992):
“Also recorded” adds a separate entry of the source.

Columns and labels:
[1] = test system: wild-type (non-transformed) petunia plants; test: Plant response to glyphosate spraying, control plants; type: in vivo; settings: 0.8 #/acre acid equivalent, isopropylamine salt sprayed
Experimental: (§1) Four individual representative transgenic seedlings were selected, grown and tested in the testing procedure described below, along with four individual non-transformed (wild-type) petunia seedlings.
(§2) The plants were grown in a growth medium in a growth chamber at 26° C. with 12 hours of light per day. The plants were fertilized weekly with a soluble fertilizer and watered as needed. The plants were sprayed at a uniform and reproducible delivery rate of herbicide by use of an automated track sprayer. The glyphosate solution used was measured as pounds of glyphosate acid equivalents per acre, mixed as the glyphosate isopropylamine salt, with an ionic surfactant.
(§3) Four individual wild-type (non-transformed) petunia plants were selected for use as control plants. Four individual transformed plants containing the pMON546 vector were selected by kanamycin resistance as described in Horsch et al. (1985).
(§4) The control plants and the transformed plants were sprayed with the isopropylamine salt of glyphosate at the application level listed in Table 2 below; the experimental results obtained are also summarized in Table 2.

[2] = test system: tobacco plants transformed with wild-type EPSP synthase gene; test: Relative effect of glyphosate spray on transformed tobacco, wild-type gene; type: in vivo, Nicotiana tabacam CV H425; set-up: key: 0 = total kill, 10 = normal unsprayed plant; settings: WT
Excerpt: (§5) A culture of A. tumefaciens cells containing pMON567/pGV3111-SE was contacted with leaf disks taken from tobacco plants (Nicotiana tabacam CV H425) as described by Horsch (1985). The Agrobacterium cells inserted the mutant EPSP synthase gene into the chromosomes of the plant cells. Plant cells resistant to kanamycin were selected and regenerated into differentiated plants by the procedure of Horsch (1985).
Progeny of these plants were propagated and grown to a rosette diameter of about 10 cm corresponding to a plant age of about four weeks. The plants were sprayed with glyphosate at levels corresponding to 2.0 and 3.6 pounds acid equiv./acre. […] The effect was translated to a numerical scale of 0-10 in which 0 represents total kill and 10 is the normal, unsprayed plant. […] The values represent the best transformant for both wild-type EPSP synthase and glyphosate-tolerant EPSP synthase genes.

[3] = biological target: petunia EPSP synthase with alanine for the first glycine of the conserved region (Petunia hybrida, UniProt P11043, G170A); test: Glyphosate sensitivity of petunia EPSP synthase with alanine for the first glycine of the conserved region; type: biochemical; settings: alanine inserted for the first glycine of the conserved region
Chain of petunia EPSP synthase with alanine for the first glycine of the conserved region (P11043 73-516 G170A): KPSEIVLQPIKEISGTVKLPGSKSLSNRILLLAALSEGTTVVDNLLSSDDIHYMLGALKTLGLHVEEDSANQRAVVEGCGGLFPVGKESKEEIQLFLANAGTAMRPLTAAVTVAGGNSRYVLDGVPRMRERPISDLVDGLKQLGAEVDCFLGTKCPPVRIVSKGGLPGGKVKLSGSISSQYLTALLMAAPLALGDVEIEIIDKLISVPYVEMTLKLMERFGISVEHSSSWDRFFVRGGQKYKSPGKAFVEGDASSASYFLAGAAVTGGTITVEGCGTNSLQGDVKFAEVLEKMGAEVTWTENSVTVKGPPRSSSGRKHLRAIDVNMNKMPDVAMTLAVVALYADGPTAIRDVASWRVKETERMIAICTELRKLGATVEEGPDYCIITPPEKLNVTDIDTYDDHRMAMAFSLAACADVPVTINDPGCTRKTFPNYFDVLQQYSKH
Excerpt: The EPSP synthase sequences shown in FIG. 2 represent a broad evolutionary range of source materials for EPSP synthases. […] However, those skilled in the art will recognize that a particular EPSP synthase may be produced by and isolated from another source material which may not have the exact sequence of the conserved region.

[4] = test system: petunia plants transformed with chimeric EPSP synthase gene (pMON546); test: Plant response to glyphosate spraying, transformed plants; type: in vivo; settings: 0.8 #/acre acid equivalent, isopropylamine salt sprayed
Experimental: as §1, §2, §3, §4

[5] = test system: tobacco plants transformed with glyphosate-tolerant petunia EPSP synthase gene (pMON567); test: Relative effect of glyphosate spray on transformed tobacco, glyphosate-tolerant gene; type: in vivo, Nicotiana tabacam CV H425; set-up: key: 0 = total kill, 10 = normal unsprayed plant; settings: GT
Excerpt: as §5
Progeny of these plants were propagated and grown to a rosette diameter of about 10 cm corresponding to a plant age of about four weeks. […] […] The effect was translated to a numerical scale of 0-10 in which 0 represents total kill and 10 is the normal, unsprayed plant. […] The values represent the best transformant for both wild-type EPSP synthase and glyphosate-tolerant EPSP synthase genes.

[6] = biological target: T1, mutant maize pre-EPSP synthase (alanine for second glycine) (Zea mays, UniProt A0A1D6NVZ6, G163A); test: EPSP synthase activity of in vitro translation product of pMON9960; type: biochemical
T1 construct: full-length cDNA pre-enzyme with chloroplast transit peptide, T7 in vitro transcription, rabbit reticulocyte lysate translation
T1 sequence (A0A1D6NVZ6 entry or part of it G163A): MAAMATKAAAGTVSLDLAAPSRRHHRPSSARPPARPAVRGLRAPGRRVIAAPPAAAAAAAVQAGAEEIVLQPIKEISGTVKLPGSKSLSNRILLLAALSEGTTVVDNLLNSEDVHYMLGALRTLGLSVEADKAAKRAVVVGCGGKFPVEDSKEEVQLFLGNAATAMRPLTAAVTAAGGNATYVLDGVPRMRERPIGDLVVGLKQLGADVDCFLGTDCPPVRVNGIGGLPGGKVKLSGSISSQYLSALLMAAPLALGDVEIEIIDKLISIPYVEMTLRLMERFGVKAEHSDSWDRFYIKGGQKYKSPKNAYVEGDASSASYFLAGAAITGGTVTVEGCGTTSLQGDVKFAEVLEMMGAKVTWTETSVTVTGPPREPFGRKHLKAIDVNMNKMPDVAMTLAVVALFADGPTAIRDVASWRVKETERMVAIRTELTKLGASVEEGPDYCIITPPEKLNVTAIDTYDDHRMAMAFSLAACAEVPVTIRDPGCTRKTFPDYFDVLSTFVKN
Experimental: The linearized plasmid DNA was transcribed in vitro with T7 polymerase essentially as described by Krieg et al. 1984. The standard reaction buffer contained 40 mM Tris-HCl (pH 7.9), 6 mM MgCl2, 10 mM dithiothreitol, 2 mM spermidine, 80 U RNAsin ribuonuclease inhibitor, 0.5 mM each of ATP, GTP, CTP and UTP, in a final reaction volume of 100 μl. The final RNA pellet was resuspended in 20 μl of sterile water and stored at -80° C. A standard translation reaction contained 100 μl of nuclease-treated rabbit reticulocyte lysate, 5.7 μl of a 19-amino acid mixture (minus methionine at 1 mM each, 5.7 μl of RNA (total RNA transcripts derived from 0.63 μg of plasmid DNA), 16 μl RNAsin (20U/μl) ribonuclease inhibitor, and 58.3 μl of [^35 S] methionine (14-15 mCi/ml). The in vitro translation products were stored frozen at -80 ° C.
The products of the in vitro translation were then assayed for EPSP synthase activity as described herein.

[7] = test system: MP4 cells (Mitchell diploid petunia); test: MP4 suspension culture in MS media containing glyphosate; type: cell-based; settings: 0.5 mM glyphosate (sodium salt) in MS media, estimated; read-out: cells which survived, share of the starting population
Experimental: The starting cell line, designated as the MP4 line, was derived from a Mitchell diploid petunia (see e.g., Ausubel 1980). The MP4 cells were suspended in Murashige and Skoog (MS) culture media, (GIBCO, Grand Island, N.Y.) All transfers involved dispensing 10 ml of suspension cultures into 50 ml of fresh media. Cultivation periods until the next transfer ranged from 10 to 14 days, and were based on visual indications that the culture was approaching saturation.
Approximately 10 ml of saturated suspension culture (containing about 5×10^6 cells) were transferred into 50 ml of MS media containing 0.5 mM glyphosate. The sodium salt of glyphosate was used throughout the experiments described herein. The large majority of cells were unable to reproduce in the presence of the glyphosate. The cells which survived (estimated to be less than 1% of the starting population) were cultured in 0.5 mM glyphosate and transferred to fresh media containing glyphosate every 10 to 14 days.

[8] = 0.4 Pounds/Acre, Day 7, best transformant
[9] = 0.4 Pounds/Acre, Day 14, best transformant
[10] = 0.4 Pounds/Acre, Day 28, best transformant
[11] = 2.0 Pounds/Acre, Day 7, best transformant
[12] = 2.0 Pounds/Acre, Day 14, best transformant
[13] = 2.0 Pounds/Acre, Day 28, best transformant
[14] = 3.6 Pounds/Acre, Day 7, best transformant
[15] = 3.6 Pounds/Acre, Day 14, best transformant
[16] = 3.6 Pounds/Acre, Day 28, best transformant

With `O=C(O)CNCP(=O)(O)O` [glyphosate, N-phosphonomethylglycine] the “Visual Appearance” value [1] was “completely dead; also recorded: killed”, the “Relative effect of glyphosate (0 total kill, 10 no effect)” value [2, 8] was 6.0 and the “Relative effect of glyphosate (0 total kill, 10 no effect)” value [2, 9] was 7.0. The “Relative effect of glyphosate (0 total kill, 10 no effect)” value [2, 10] was 9.0, the “Relative effect of glyphosate (0 total kill, 10 no effect)” value [2, 11] was 5.0 and the “Relative effect of glyphosate (0 total kill, 10 no effect)” value [2, 12] was 1.8. The “Relative effect of glyphosate (0 total kill, 10 no effect)” value [2, 13] was 0.8, the “Relative effect of glyphosate (0 total kill, 10 no effect)” value [2, 14] was 5.0 and the “Relative effect of glyphosate (0 total kill, 10 no effect)” value [2, 15] was 1.7. The “Relative effect of glyphosate (0 total kill, 10 no effect)” value [2, 16] was 0.8, the “change in glyphosate sensitivity versus wild-type petunia EPSP synthase” value [3] was “no attendant changes in glyphosate sensitivity” and the “Visual Appearance” value [4] was “growing well; also recorded: healthy and viable”. The “Relative effect of glyphosate (0 total kill, 10 no effect)” value [5, 8] was 8.0, the “Relative effect of glyphosate (0 total kill, 10 no effect)” value [5, 9] was 8.0 and the “Relative effect of glyphosate (0 total kill, 10 no effect)” value [5, 10] was 9.0. For the same molecule, the “Relative effect of glyphosate (0 total kill, 10 no effect)” value [5, 11] was 8.0, the “Relative effect of glyphosate (0 total kill, 10 no effect)” value [5, 12] was 8.3 and the “Relative effect of glyphosate (0 total kill, 10 no effect)” value [5, 13] was 7.0. The “Relative effect of glyphosate (0 total kill, 10 no effect)” value [5, 14] was 5.0, the “Relative effect of glyphosate (0 total kill, 10 no effect)” value [5, 15] was 7.4 and the “Relative effect of glyphosate (0 total kill, 10 no effect)” value [5, 16] was 7.0. For the same molecule, the “inhibition of EPSP synthase activity” value ([6]; 1 mM glyphosate, product of pMON9960) was “only slightly inhibited”, the “EPSP synthase activity in the presence of glyphosate” value ([6]; 100 mM glyphosate, product of pMON9960) was “still showing detectable activity” and the inhibition at 10000 µM ([6]; read-out: inhibition of EPSP synthase activity) was 25%. For the same molecule, the viability at 500 µM [7] was < 1%.
